Laboratory results published in patent US20020198161A1, “THERAPEUTIC USES OF ANTIOXIDANTS” (priority 1997, published 2002).
Entries after “also recorded” stand apart in the source; their conditions may differ.

Legend:
[1] = system: 308 papilloma cells; assay: Apoptosis-associated DNA strand breaks, fluorescent in situ end-labeling, 308 cells; type: cell-based, murine; settings: 20 mM NAC, 24 h
Excerpt: (§1) Cell Lines. MEF primary mouse embryo fibroblast cells (passage <5) and E1A/Ha-ras-transformed MEF were as in Lowe (18). The 308 papilloma cell line, which has a mutant Ha-ras allele (Strickland, J. E. et al., 1988, Cancer Res. 48) and wild-type p53 (Liu, M. et al., 1995, Oncogene 10:1955-1960) were also utilized. The (Rostein, J. B. et al., 1988, Mutation Research 202:421-427) 1 mouse embryo fibroblast cell line was as in Levine (Harney, D. M. et al., 1991, Genes Dev. 5:2375-2385). BALB/c 3T3 A31 cells were obtained from the American Type Culture Collection (Bethesda, Md.). 308 papilloma cells were maintained in 0.05 mM Ca2+ EMEM medium with 10% fetal bovine serum, and all other cells were grown in DMEM medium with 10% heat-inactivated fetal bovine serum. Cell culture confluence was maintained below 80%.
(§2) Apoptosis Assays. For fixed cells, apoptosis-associated DNA strand breaks were visualized by fluorescent in situ end-labeling as previously described (Ziegler, A. et al., 1994, Nature 372:773-776). For isolated DNA, DNA fragmentation analysis was performed (Lowe, S. W. et al., 1993, Cell 74:957-967).

[2] = system: MEF p53+/+ cells; assay: Apoptosis / viability in normal primary MEF (MEF p53+/+); type: cell-based, mouse; settings: for apoptosis in normal counterparts: normal MEF, 50 μM DMP, 20 mM OTC
Excerpt: as §1
(§3) Chemicals and Cell Treatments. All chemicals were obtained from Sigma, except for Trolox which was purchased from Aldrich. These compounds were freshly dissolved in medium and adjusted to neutral pH if necessary, or (for vitamin E acetate, Trolox, and BHA) first dissolved in ethanol and added to the medium. Cell viability was determined by trypan blue exclusion as a measure of cell death independent of any growth suppression by p53.
as §2
(§4) For flow cytometry analysis, approximately 10^6 cells per sample were washed with ice-cold PBS and fixed in 95% ethanol. Cells were then resuspended in 1 mg/ml RNase (Sigma) for 30 min at 37° C. and stained with 0.05 mg/ml propidium iodide (Sigma) for 1 h on ice. Flow cytometric analysis was performed with a FACS Vantage flow cytometer (Becton-Dickinson). Cells were excited at 488 nm and the emission was detected through a 630/22 nm band pass filter. A minimum of 10,000 cells were analyzed for each sample. Cell cycle analysis was performed using the Modfit 5.2 software (Verity Software House). […] Cellular debris was gated out using the electronic threshold.

[3] = system: p53 protein; assay: p53 protein synthesis rate in 308 cells (35S-methionine labeling); type: cell-based, murine; settings: 20 mM NAC, 5 h post-treatment
Method: Analysis of p53 Protein Synthesis. Cultures of 308 cells were treated in the absence or presence of 20 mM NAC. At 4.5 h post-treatment, cells were incubated with methionine-free medium containing 2% dialyzed and chelexed fetal bovine serum for 0.5 h. At 5 h post-treatment, biosynthetic labeling was initiated by adding 200 μCi of ^35S-methionine per ml of methionine-free medium. The labeling was terminated at 5, 10, or 15 min. Throughout the experiment, 20 mM NAC was included in the group of NAC-treated cells. Cells were then washed twice with 10 ml of ice-cold PBS, scraped, and pelleted by centrifugation at 1500 rpm at 4° C. for 5 min. The supernatant was removed, and the cell pellet was lysed in ice-cold cell lysis buffer (0.5% Triton X-100, 300 mM NaCl, 50 mM Tris-HCl, pH 7.4, 10 μg/ml leupeptin, 0.1 mM phenylmethylsulfonyl fluoride). Aliquots of cell lysate containing equal amounts of protein (30 μg) were subjected to immunoprecipitation analysis with anti-p53 antibody PAb122 (25) and Protein A-agarose (GIBCO-BRL). The immunoprecipitated proteins were resolved on a 10% SDS-PAGE gel. The levels of synthesized p53 protein were then determined by densitometric scanning using a Hewlett-Packard ScanJet 4P Scanner and the NIH image 1.59 analysis software.

[4] = system: p53 protein; assay: p53 protein level in 308 cells (Western blot); type: cell-based, murine; settings: dose-dependent, within 3 to 8 hours
Excerpt: as §1
(§5) Northern and Western Blot Analysis. Northern and Western blot analysis were performed as previously described (Liu, M. et al., 1995, Oncogene 10:1955-1960).

[5] = system: p53; assay: p53 induction in BALB/c 3T3 A31 fibroblast cell line; type: cell-based, murine; settings: BALB/c 3T3 A31 cells
Excerpt: as §1, §5

[6] = system: p53+/+ colorectal carcinoma cell line RKO; assay: Apoptosis in colorectal carcinoma cell line RKO; type: cell-based; settings: human p53+/+ RKO cells
Method: as §2

[7] = system: DNA; settings: literature references; cited from earlier work
[8] = system: p53 mRNA; assay: p53 mRNA steady-state level in 308 cells (Northern blot); type: cell-based, murine; settings: 20 mM NAC, 5 h
Excerpt: as §1, §5

[9] = system: p53 protein; assay: p53 induction in normal MEF p53+/+ cells (immunohistochemical staining); type: cell-based, mouse; settings: 20 mM NAC, 5 h
Method: FIGS. 2A-2C. p53-dependent apoptosis by NAC is selective for transformed cells. FIG. 2A: viability of normal (MEF) and transformed (tMEF) cells measured by trypan blue exclusion after treatment with NAC for 24 h. FIG. 2B: analysis of DNA fragmentation from tMEF cells exposed to NAC. FIG. 2C: immunohistochemical staining of p53 protein in p53+/+ MEF cells after 5 h exposure to 20 mM NAC.
as §1

[10] = system: 308 papilloma cells; assay: Cell viability by trypan blue exclusion in 308 papilloma cells; type: cell-based, murine; settings: NAC dose range
Excerpt: as §1, §3

[11] = system: p53-/- tMEF and MEF cells; assay: Apoptosis / viability in transformed and normal primary cells from p53-/- null mice; type: cell-based, mouse; settings: for p53 requirement of apoptosis induction: p53-/- versus p53+/+ transformed MEF
Excerpt: as §1, §3, §2

[12] = system: tMEF p53+/+ cells; assay: Apoptosis / viability in E1A/Ha-ras-transformed MEF (tMEF p53+/+); type: cell-based, mouse; settings: for effect on cell viability (trypan blue exclusion) / apoptosis (DNA analysis): p53+/+ tMEF; for effect on cell viability (trypan blue exclusion): 48 h, tocopherol acetate 200 μM, Trolox 200 μM, BHA 100 μM; for apoptosis (DNA analysis): chain-breaking antioxidants; for apoptosis in E1A/Ha-ras transformed cells (viability, DNA fragmentation, flow cytometry): 50 μM DMP, 20 mM OTC, 24-48 h
Method: as §1, with “The 308 papilloma cell line, which has a mutant Ha-ras allele (Strickland, J. E. et al., 1988, Cancer Res. 48) and wild-type p53 (Liu, M. et al., 1995, Oncogene 10:1955-1960) were also utilized.” left out
as §3, §2, §4

[13] = system: tMEF p53+/+ cells; assay: GSH and total thiols in tMEF p53+/+ cells (GSH-400 kit); type: cell-based, mouse; settings: 20 μM BSO 1 h preincubation then 20 μM BSO + 20 mM NAC 5 h
Method: FIG. 6. Analysis of GSH, total thiols, and viability in tMEF p53+/+ cells treated with BSO and/or NAC. Cells treated with both compounds were preincubated with medium containing 20 μM BSO for 1 h and then treated with medium containing 20 μM BSO and 20 mM NAC for 5 h (GSH and thiols) or for 24 h (viability).
Measurement of GSH and Total Thiols. Cells (4×106) were harvested from each sample. The GSH-400 kit (R & D Systems) was used following the manufacturer's instructions.

CC(=O)N[C@@H](CS)C(=O)O [NAC, N-acetylcysteine]
in situ end-labeling of DNA strand-breaks (apoptosis) [1]: showing in situ end-labeling of DNA strand-breaks | NAC-induced apoptosis (viability) ([2]; normal MEF p53+/+, NAC 24 h): strikingly resistant | elevation of biosynthetic rate of p53 protein [3]: ~5 fold | increase of p53 protein levels [4]: 5- to 10 fold | p53 induction [5]: induced p53 | apoptosis induction [6]: induced apoptosis | induction of DNA damage [7]: does not induce DNA damage | steady-state level of p53 mRNA vs control [8]: no major difference | p53 induction [9]: p53 was induced | cell death (cell viability by trypan blue exclusion) [10]: dose-dependent cell death | NAC-induced apoptosis (viability) ([11]; transformed and normal primary cells from p53-/- null mice, NAC 24 h): deficient in apoptosis induced by NAC | NAC-induced apoptosis (viability, DNA fragmentation) ([12]; tMEF p53+/+, NAC 24 h): sensitive to NAC-induced apoptosis

CCCCS(=N)(=O)CCC(N)C(=O)O [BSO, L-buthionine sulfoximine]
effect on induction of cellular GSH by NAC [13]: completely blocks induction of cellular GSH by NAC; also recorded: inhibits cellular GSH elevation by NAC | effect on induction of total thiols by NAC [13]: only partially blocking the induction of total thiols | effect on NAC-induced apoptosis (viability) ([12]; tMEF p53+/+, 20 μM BSO + 20 mM NAC 24 h): did not block NAC-induced apoptosis; also recorded: cannot block NAC-induced apoptosis

CC(=O)Oc1c(C)c(C)c2c(c1C)CCC(C)(CCC[C@H](C)CCC[C@H](C)CCCC(C)C)O2 (some centres unmarked) [vitamin E acetate, tocopherol acetate]
effect on cell viability (trypan blue exclusion) [12]: little effect on cell viability | effect on cell viability (trypan blue exclusion) ([12]; listed as tocopherol acetate): do not induce cell death | apoptosis (DNA analysis) [12]: no apoptosis occurred; also recorded: did not induce p53-dependent apoptosis

OCC(S)CS (centres unmarked) [DMP, 2,3-dimercaptopropanol]
apoptosis in normal counterparts [2]: not in their normal counterparts | apoptosis induction [6]: induced apoptosis | p53 requirement of apoptosis induction [11]: required p53 | doses at which active (apoptosis induction) ([12]; transformed MEF): ≥ 50 µM | apoptosis in E1A/Ha-ras transformed cells (viability, DNA fragmentation, flow cytometry) ([12]; transformed MEF): selectively induced apoptosis

O=C(O)CCCC[C@@H]1CCSS1 (racemic) [lipoic acid]
apoptosis in normal counterparts [2]: behaved similarly | apoptosis induction [6]: induced apoptosis | p53 requirement of apoptosis induction [11]: required p53 | apoptosis in E1A/Ha-ras transformed cells (viability, DNA fragmentation, flow cytometry) ([12]; transformed MEF): behaved similarly

O=C1N[C@H](C(=O)O)CS1 [OTC, L-2-oxo-4-thiazolidinecarboxylate]
apoptosis in normal counterparts [2]: not in their normal counterparts | apoptosis induction [6]: induced apoptosis | p53 requirement of apoptosis induction [11]: required p53 | apoptosis in E1A/Ha-ras transformed cells (viability, DNA fragmentation, flow cytometry) ([12]; transformed MEF): selectively induced apoptosis

COc1ccc(O)c(C(C)(C)C)c1 [BHA]
effect on cell viability (trypan blue exclusion) [12]: little effect on cell viability; also recorded: do not induce cell death | apoptosis (DNA analysis) [12]: no apoptosis occurred

Cc1c(C)c2c(c(C)c1O)CCC(C)(C(=O)O)O2 (centres unmarked) [Trolox]
effect on cell viability (trypan blue exclusion) [12]: little effect on cell viability; also recorded: do not induce cell death | apoptosis (DNA analysis) [12]: no apoptosis occurred; also recorded: did not induce p53-dependent apoptosis
